Patent US6548042B2, “Bis-phosphonate compounds” (priority 2000, dated 2003)

Test: Pharmacokinetics in mice by scintigraphy (gamma camera)
Type: in vivo, balb/c mice
Protocol: Pharmacokinetics in mice. Two animals weighing 20 g and 28 g were anaesthetized and given 250 μl single bolus tail vein injections containing 12 MBq of 46a. The animals were placed under a gamma camera and 2 min frames were collected for the following 2 h. The presented data refers to the animal weighing 20 g.
A gamma camera (ADAC, USA) equipped with a 6 mm pinhole collimator was used. Dynamic data were acquired using a 128×128 matrix size, the field of view was zoomed to the middle 25×25 cm of the camera, and 2 min frames were collected for 2 hours.
The progression from intravenous injection of the hydroxybisphosphonate 46a in mice (balb/c, 20 g) was monitored by means of scintigraphy for 2 h. Images were obtained and dynamic curves for the radioactivity detected in the kidneys and bladder were derived by interactively drawing regions around structures of interest (FIG. 9). […] This is due to the increased sensitivity in the middle of the image, where the accumulation occurs in the kidneys and bladder.

**Q.** With `O=P(O)(O)C(O)(Cc1cccc([131I])c1)P(=O)(O)O` [46a, 1-hydroxy(m-[^131I and ^125I]-iodophenyl)-ethylidene-1,1-bisphosphonic acid] as the compound, how does the “Injected activity accumulated in the bladder” value (after 2 hours, mouse 20 g, 12 MBq i.v.) read?
**A.** 27%

**Q.** What about the “Peak uptake in the kidneys (left and right)” value (at 45 min postinjection) of the same compound?
**A.** 7.5 % of the injected dose

**Q.** What about the “Biological half-life in the kidneys” value (from the peak at 45 min) of the same compound?
**A.** 50 min

**Q.** And the “Estimated excretion of the injected dose” value (mouse, in vivo)?
**A.** 35%

**Q.** What about the “Estimated retention of the injected dose” value (mouse, in vivo) of the same compound?
**A.** 65%

**Q.** What about the “Time of peak uptake in the kidneys” value (postinjection) of the same compound?
**A.** 45 min
